Laboratory results reported in article PMC4488747, “Inhibition of P-glycoprotein Gene Expression and Function Enhances Triptolide-induced Hepatotoxicity in Mice” (Scientific Reports, 2015).

Assays:
[1] = parameters: method as in PMID 24632843; conditions: bile duct-cannulated (BDC) rats, in 24 h; cited from earlier work
[2] = Hepatic concentrations of triptolide in mice; assay type: in vivo; conditions: mice liver
Description: (§1) For TP plasma kinetic study and toxicological evaluation, mice were divided into four groups (n = 5 each) to collect blood and tissue samples: (1) normal + saline group; (2) 1.0 mg/kg TP + 15 nmol NC-siRNA group; (3) 1.0 mg/kg TP + 15 nmol mdr1a-siRNA group; (4) 1.0 mg/kg TP + 10 mg/kg tariquidar group. In order to avoid the complication caused by drug absorption or possible intestinal first-pass effect, TP and the inhibitor were intravenously administrated to mice. The siRNA group was intravenously injected with NC-siRNA or mdr1a-siRNA 2 days before TP dose. For TP + tariquidar group, the mice were received an intravenous tariquidar dose 20 min prior to the TP injection. Blood samples were collected at 2, 5, 10, 15, 30, 60 and 120 min after TP dosing. To assess the liver exposure of TP, liver tissue samples were collected from another set of mice at 5, 30, 60 and 120 min after dosing. Three TP groups were design for this experiment, including TP + NC-siRNA group, TP + mdr1a-siRNA group and TP + tariquidar group. The liver tissue samples were weighed and then homogenized in 10 volume (w:v) of ice-cold saline. The concentrations of TP in plasma and liver tissue were measured by a validated LC-MS/MS method. Prior to the above animal study, a preliminary experiment was performed to assess the possible differences in liver P-gp protein expression (Figure S1) and TP plasma kinetics between NC-siRNA treated mice and normal mice (with saline) (Figure S2 and supplemental Table 1). […] Therefore, NC-siRNA group was used as the control in the following animal study.
The TP in plasma and tissue samples was quantitatively analyzed by a published LC-MS/MS method. The method was slightly modified and validated for analysis of plasma and liver tissue samples. Plasma and tissue homogenate were pretreated with 3-fold volume of methanol-acetonitrile (1:1, v/v) containing 20 ng/ml propranolol to precipitate proteins, and then centrifuged at 4°C, 14,000 g for 10 min. The supernatant (10 μl) was injected into LC-MS/MS for analysis. An Aglient 6410B triple quadrupole mass spectrometer equipped with Agilent1290 Infinity UHPLC system (Agilent Technologies, Santa Clara, CA) was used. TP and propranolol (internal standard, IS) were eluted from an Agilent C18 column (dp = 3.5 μm, 2.1 × 50 mm, Agilent, MA) using a mobile phase gradient (A: water with 0.1% formic acid and 2.5 mM ammonium formate, B: acetonitrile with 0.1% formic acid). The gradient was run as: 0–2.5 min hold at 95% B; 2.5–3 min, a linear gradient to 10% B; 3–4 min hold at 10% B. Flow rate was 0.2 ml/min. TP and propranolol were detected in positive ion mode using single reaction monitoring: TP, m/z 378.1/360.1, IS, m/z 260.0/116.0. Under the above optimized condition, no significant endogenous interferences were detected at the peak regions for TP and IS in all the biological specimens. The calibration curves of TP were linear (r^2 > 0.99) over the concentration range of 1–1000 ng/ml. The lower limit of quantification was at 1 ng/ml. The intra and inter-day precisions (RSD) were all below 11% and the assay accuracies (RE) were in the range from 87% to 113%. The recovery was above 80% for both plasma and tissue samples.

BALB/C mice [3] = test: Hepatic MDA content and SOD activity in mice; assay type: in vivo; conditions: 24 h; for Hepatic MDA level, fold increase: significance vs normal group
Description: as §1
(§2) At 24 h of TP treatment, blood and liver tissue samples were collected from the mice in plasma kinetic study. Serum ALT and AST levels were determined with a CL8000 automated biochemical analyzer (Shimadzu, Japan) after serum was separated by centrifugation at 900 g for 10 min. […] The total protein concentration was quantified by the BCA assay. Bcl-2 and Bax proteins were measured by western blot.

BALB/C mice [4] = test: Liver histopathology (HE staining) in mice; assay type: in vivo; conditions: TP 1 mg/kg iv, 24 h, TP = NC-siRNA group, tariquidar and mdr1a-1 siRNA = given before TP
Description: For TP plasma kinetic study and toxicological evaluation, mice were divided into four groups (n = 5 each) to collect blood and tissue samples: (1) normal + saline group; (2) 1.0 mg/kg TP + 15 nmol NC-siRNA group; (3) 1.0 mg/kg TP + 15 nmol mdr1a-siRNA group; (4) 1.0 mg/kg TP + 10 mg/kg tariquidar group. In order to avoid the complication caused by drug absorption or possible intestinal first-pass effect, TP and the inhibitor were intravenously administrated to mice. The siRNA group was intravenously injected with NC-siRNA or mdr1a-siRNA 2 days before TP dose. For TP + tariquidar group, the mice were received an intravenous tariquidar dose 20 min prior to the TP injection. Blood samples were collected at 2, 5, 10, 15, 30, 60 and 120 min after TP dosing. To assess the liver exposure of TP, liver tissue samples were collected from another set of mice at 5, 30, 60 and 120 min after dosing. […] The concentrations of TP in plasma and liver tissue were measured by a validated LC-MS/MS method. […]
as §2

Bcl-2/Bax = test: Bcl-2 and Bax expression in mouse liver (western blot); assay type: in vivo; conditions: mice, TP 1 mg/kg iv, 24 h; tariquidar and mdr1a-siRNA = given before TP
Description: For protein extraction, the cells or mice liver tissues were homogenized in RIPA buffer and then centrifuged at 14,000 g at 4 °C for 30 min. The supernatant was collected and the protein concentration was measured using BCA assay. The sample (50 μg protein/sample) was then loaded on 12% polyacrylamide gels and transferred to polyvinylidene difluoride membranes (Millipore, USA). After blocked by 3% bovine serum albumin, the membranes were incubated with primary antibodies and HRP-conjugated secondary antibody, and then detected using the enhanced chemiluminescence plus detection system (Molecular Device, Lmax, USA). The density of each band was quantified by using image analysis software (Science Lab 2005 Image Guage; Tokyo, Japan).
as §2, with “min. Liver tissue samples were divided into two parts, the first half was kept at −80 °C until MDA and SOD measurements using MDA and SOD assay kits (Nanjing Jiancheng Bioengineering Institute, Nanjing, China) according to the manufacturer’s instructions.” for “min.”

CC(C)[C@]12O[C@H]1[C@@H]1O[C@]13[C@]1(O[C@H]1C[C@H]1C4=C(CC[C@@]13C)C(=O)OC4)[C@@H]2O [TP, Triptolide]
TP dose excreted via bile [1]: ~39%
Hepatic concentration of TP ([2]; 5 min after TP 1.0 mg/kg iv, NC-siRNA pretreatment (control)): 1953.3 ± 786.7 ng/g protein
Hepatic concentration of TP ([2]; 5 min after TP 1.0 mg/kg iv, mdr1a-siRNA iv 2 days before): 4278.0 ± 653.1 ng/g protein
Hepatic concentration of TP ([2]; 5 min after TP 1.0 mg/kg iv, tariquidar 10 mg/kg iv 20 min prior): 2857.3 ± 909.4 ng/g protein
Hepatic concentration of TP ([2]; 30 min after TP 1.0 mg/kg iv, NC-siRNA pretreatment (control)): 394.9 ± 41.2 ng/g protein
Hepatic concentration of TP ([2]; 30 min after TP 1.0 mg/kg iv, mdr1a-siRNA iv 2 days before): 950.8 ± 232.1 ng/g protein
Hepatic concentration of TP ([2]; 30 min after TP 1.0 mg/kg iv, tariquidar 10 mg/kg iv 20 min prior): 683.9 ± 61.3 ng/g protein
Hepatic concentration of TP ([2]; 60 min after TP 1.0 mg/kg iv, NC-siRNA pretreatment (control)): 170.6 ± 66.3 ng/g protein
Hepatic concentration of TP ([2]; 60 min after TP 1.0 mg/kg iv, mdr1a-siRNA iv 2 days before): 326.2 ± 22.4 ng/g protein
Hepatic concentration of TP ([2]; 60 min after TP 1.0 mg/kg iv, tariquidar 10 mg/kg iv 20 min prior): 302.8 ± 22.7 ng/g protein
Hepatic concentration of TP ([2]; 120 min after TP 1.0 mg/kg iv, NC-siRNA pretreatment (control)): 37.4 ± 12.2 ng/g protein
Hepatic concentration of TP ([2]; 120 min after TP 1.0 mg/kg iv, mdr1a-siRNA iv 2 days before): 84.8 ± 14.5 ng/g protein
Hepatic concentration of TP ([2]; 120 min after TP 1.0 mg/kg iv, tariquidar 10 mg/kg iv 20 min prior): 36.1 ± 14.4 ng/g protein
Hepatic MDA level, fold increase (BALB/C mice [3]; TP 1 mg/kg iv + mdr1a-siRNA): 1.6 fold
Hepatic MDA level, fold increase (BALB/C mice [3]; TP 1 mg/kg iv + tariquidar 10 mg/kg): 1.3 fold
Hepatic SOD activity (BALB/C mice [3]; all three TP groups, significant only with tariquidar or mdr1a-siRNA): reduction
Histopathological changes in liver (HE) (BALB/C mice [4]): hepatocellular hydropic degeneration and vacuolization
Bcl-2/Bax ratio in liver (Bcl-2/Bax): significantly reduced
